The values below come from patent US9328138B2 (priority 2011, dated 2016).

Assay [1] has as its target HCV NS3 protease genotype 3a (3A-1) (Hepatitis C virus genotype 3a, UniProt Q81258). In words: HCV NS3 protease time-resolved fluorescence (TRF) assay, genotype 3a. The format is biochemical. The note with it: Ki 3a. The essentials: (§1)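 Steps: compound plus NS3/NS4A enzyme for 10 minutes; add peptide substrate to 25 nM; let cleavage proceed 6 hours at room temperature; read product fluorescence (340 nm excitation, 615 nm emission, delayed 400 μs). Enzyme levels gave signal/background 5-20.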

Assay [2] deals with T1, HCV genotype 1b (BK) NS3 modified enzyme with a R155K mutation (Hepatitis C virus genotype 1b, UniProt P26663, R1181K).
T1 construct: HCV genotype 1b (BK) NS3 modified enzyme
In words: HCV NS3 protease time-resolved fluorescence (TRF) assay, genotype 1b R155K. Format: biochemical. The following applies: Ki 1b R155K. The essentials:
as §1

Where [3] appears, read: genotype 1b (BK) NS3 R155K, single value.
[4] abbreviates: first of two values printed in the cell (not explained).
Setting [5] is: second of two values printed in the cell (not explained).

For `C=C[C@@H]1C[C@]1(NC(=O)[C@@H]1C[C@@H]2CN1C(=O)[C@H](C1CCCCC1)NC(=O)O[C@@H]1C[C@H]1CCCCCc1c(nc3ccccc3c1OCCCN1CCC(F)(F)CC1)O2)C(=O)NS(=O)(=O)C1(C)CC1` [Example 170], the Ki was found to be 21000 pM in assay [1] and 1100 pM in assay [2] (setting [3]).

For the compound `C=C[C@@H]1C[C@]1(NC(=O)[C@@H]1C[C@@H]2CN1C(=O)[C@H](C1CCCC1)NC(=O)O[C@@H]1CCC[C@H]1CC/C=C/Cc1c(nc3cc(Cl)ccc3c1OC)O2)C(=O)NS(=O)(=O)C1CC1` [Example 9, (3aR,7S,10S,12R,21E,24aS)-16-chloro-7-cyclopentyl-N-{(1R,2S)-1-[(cyclopropylsulfonyl)carbamoyl]-2-ethenylcyclopropyl}-19-methoxy-5,8-dioxo-1,2,3,3a,5,6,7,8,11,12,20,23,24,24a-tetradecahydro-10H-9,12-methanocyclopenta [18,19][1,10,3,6]dioxadiazacyclononadecino [11,12-b]quinoline-10-carboxamide], the Ki in assay [1] came to 2900 pM; in assay [2] (setting [3]), 140 pM.

With `C=C[C@@H]1CC1(NC(=O)[C@@H]1C[C@@H]2CN1C(=O)[C@H](C1CCCCC1)NC(=O)O[C@@H]1C[C@H]1CCCCCc1c(nc3ccccc3c1OCCCN1CCNCC1)O2)C(=O)NS(=O)(=O)C1(C)CC1` (stereo partly drawn) [Example 265, potassium ({(1R,2S)-1-[({(1aR,5S,8S,10R,22aR)-5-cyclohexyl-3,6-dioxo-17-[3-(piperazin-1-yl)propoxy]-1,1a,3,4,5,6,9,10,18,19,20,21,22,22a-tetradecahydro-8H-7,10-methanocyclopropa[18,19][1,10,3,6]dioxadiazacyclononadecino[11,12-b]quinolin-8-yl}carbonyl)amino]-2-ethenylcyclopropyl}carbonyl)[(1-methylcyclopropyl)sulfonyl]azanide], the Ki in assay [1] came to 1150 pM; in assay [2] (setting [4]), 16 pM; in assay [2] (setting [5]), 110 pM.

With `C=C[C@@H]1C[C@]1(NC(=O)[C@@H]1C[C@@H]2CN1C(=O)[C@H](C(C)(C)C)NC(=O)O[C@@H]1C[C@H]1CCCCCc1c(nc3cc(C)ccc3c1OCCCNC1CC1)O2)C(=O)NS(=O)(=O)C1(C)CC1` [Example 145, (1aR,5S,8S,10R,22aR)-5-tert-butyl-17-[3-(cyclopropylamino)propoxy]-N-[(1R,2S)-2-ethenyl-1-{[(1-methylcyclopropyl)sulfonyl]carbamoyl}cyclopropyl]-14-methyl-3,6-dioxo-1,1a,3,4,5,6,9,10,18,19,20,21,22,22a-tetradecahydro-8H-7,10-methanocyclopropa[18,19][1,10,3,6]dioxadiazacyclononadecino[11,12-b]quinoline-8-carboxamide], the values for the Ki in assay [1] and in assay [2] (setting [3]) were 1200 pM and 79 pM, respectively.

Turning to `C=C[C@@H]1C[C@]1(NC(=O)[C@@H]1C[C@@H]2CN1C(=O)[C@H](C(C)(C)C)NC(=O)O[C@@H]1C[C@H]1CCCCCc1c(nc3cc(F)ccc3c1OCCCN1CCOCC1)O2)C(=O)NS(=O)(=O)C1(C)CC1` [Example 152, (1aR,5S,8S,10R,22aR)-5-tert-butyl-N-[(1R,2S)-2-ethenyl-1-{[(1-methylcyclopropyl)sulfonyl]carbamoyl}cyclopropyl]-14-fluoro-17-[3-(morpholin-4-yl)propoxy]-3,6-dioxo-1,1a,3,4,5,6,9, 10,18,19,20,21,22,22a-tetradecahydro-8H-7,10-methanocyclopropa[18,19] [1,10,3,6]dioxadiaza cyclononadecino[11,12-b]quinoline-8-carboxamide], the inhibition constant Ki in assay [1] is 1500 pM; in assay [2] (setting [3]), 250 pM.

In the case of `C=C[C@@H]1C[C@]1(NC(=O)[C@@H]1C[C@@H]2CN1C(=O)[C@H](C1CCCCC1)NC(=O)O[C@@H]1C[C@H]1CCCCCc1c(nc3c(F)cccc3c1OC1CCN(C)CC1)O2)C(=O)NS(=O)(=O)C1(C)CC1` [Example 286, (1aR,5S,8S,10R,22aR)-5-cyclohexyl-N-[(1R,2S)-2-ethenyl-1-{[(1-methylcyclopropyl)sulfonyl]carbamoyl}cyclopropyl]-13-fluoro-17-[(1-methylpiperidin-4-yl)oxy]-3,6-dioxo-1,1a,3,4,5,6,9,10,18,19,20,21,22,22a-tetradecahydro-8H-7,10-methanocyclopropa[18,19][1,10,3,6]dioxadiazacyclononadecino[11,12-b]quinoline-8-carboxamide], the Ki in assay [1] is 515 pM; in assay [2] (setting [4]) it was 22 pM; in assay [2] (setting [5]) it was 94 pM.

As for `C=C[C@@H]1C[C@]1(NC(=O)[C@@H]1C[C@@H]2CN1C(=O)[C@H](CC1CCCCC1)NC(=O)O[C@@H]1C[C@H]1CCCCCc1c(nc3ccccc3c1OCCN1CCOCC1)O2)C(=O)NS(=O)(=O)C1(C)CC1` [Example 125, (1aR,5S,8S,10R,22aR)-5-(cyclohexylmethyl)-N-[(1R,2S)-2-ethenyl-1-{[(1-methylcyclopropyl)sulfonyl]carbamoyl}cyclopropyl]-17-[2-(morpholin-4-yl)ethoxy]-3,6-dioxo-1,1a,3,4,5,6,9,10,18,19,20, 21,22,22a-tetradecahydro-8H-7,10-methanocyclopropa [18,19][1,10,3,6]dioxadiazacyclo nonadecino[11,12-b]quinoline-8-carboxamide], the Ki is 114000 pM in assay [1] and 4100 pM in assay [2] (setting [3]).

As for `C=C[C@@H]1C[C@]1(NC(=O)[C@@H]1C[C@@H]2CN1C(=O)[C@H](C1CCCCC1)NC(=O)O[C@@H]1C[C@H]1CCCCCc1c(nc3ccccc3c1OCCCN1CCN(S(C)(=O)=O)CC1)O2)C(=O)NS(=O)(=O)C1(C)CC1` [Example 165, (1aR,5S,8S,10R,22aR)-5-cyclohexyl-N-[(1R,2S)-2-ethenyl-1-{[(1-methylcyclopropyl)sulfonyl]carbamoyl}cyclopropyl]-17-{3-[4-(methylsulfonyl)piperazin-1-yl]propoxy}-3,6-dioxo-1,1a,3,4,5,6,9,10, 18,19,20,21,22,22a-tetradecahydro-8H-7,10-methanocyclopropa[18,19][1,10,3,6] dioxadiazacyclononadecino[11,12-b] quinoline-8-carboxamide], the Ki was determined as 2800 pM in assay [1] and 240 pM in assay [2] (setting [3]).

For `C=C[C@@H]1C[C@]1(NC(=O)[C@@H]1C[C@@H]2CN1C(=O)[C@H](C(C)(C)C)NC(=O)O[C@@H]1C[C@H]1CCCCCc1c(nc3ccccc3c1OC1C3COCC1CN(C(=O)OC(C)(C)C)C3)O2)C(=O)NS(=O)(=O)C1(C)CC1` (single isomer, unassigned) [Example 254], the Ki in assay [1] amounted to 47500 pM; in assay [2] (setting [4]), 116 pM; in assay [2] (setting [5]), 2300 pM.

As for `C=C[C@@H]1C[C@]1(NC(=O)[C@@H]1C[C@@H]2CN1C(=O)[C@H](C(C)(C)C)NC(=O)O[C@]1(C)C[C@H]1CCCCCc1c(nc3ccccc3c1OCCN1CCOCC1)O2)C(=O)NS(=O)(=O)C1(COC)CC1` [Example 99, (1aR,5S,8S,10R,22aR)-5-tert-butyl-N-[(1R,2S)-2-ethenyl-1-({[1-(methoxymethyl)cyclopropyl]sulfonyl}carbamoyl)cyclopropyl]-1a-methyl-17-[2-(morpholin-4-yl)ethoxy]-3,6-dioxo-1,1a, 3,4,5,6,9,10,18,19,20,21,22,22a-tetradecahydro-8H-7,10-methano-cyclopropa[18,19][1,10,3,6] dioxadiazacyclononadecino [11,12-b]quinoline-8-carboxamide], the Ki worked out at 2800 pM in assay [1] and 280 pM in assay [2] (setting [3]).

On to `C=C[C@@H]1C[C@]1(NC(=O)[C@@H]1C[C@@H]2CN1C(=O)[C@H](C1CCCC1)NC(=O)O[C@@H]1CCC[C@H]1CC/C=C/Cc1c(nc3ccccc3c1OCCC(C)(C)O)O2)C(=O)NS(=O)(=O)C1(C)CC1` [Example 49, (3aR,7S,10S,12R,21E,24aS)-7-cyclopentyl-N-[(1R,2S)-2-ethenyl-1-{[(1-methylcyclopropyl)sulfonyl]carbamoyl}cyclopropyl]-19-(3-hydroxy-3-methylbutoxy)-5,8-dioxo-1,2,3,3a,5,6,7,8,11,12,20,23,24,24a-tetradecahydro-10H-9,12-methanocyclo penta[18,19][1,10,3,6]dioxadiazacyclo nonadecino[11,12-b]quinoline-10-carboxamide], for which the Ki in assay [1] came to 1500 pM; in assay [2] (setting [3]), 160 pM.

Regarding `C=C[C@@H]1CC1(NC(=O)[C@@H]1C[C@@H]2CN1C(=O)[C@H](C(C)(C)C)NC(=O)O[C@@H]1C[C@H]1CCCCCc1c(nc3ccccc3c1CN1CCOCC1)O2)C(=O)NS(=O)(=O)C1(C)CC1` (stereo partly drawn) [Example 248, potassium {[(1R,2S)-1-({[(1aR,5S,8S,10R,22aR)-5-tert-butyl-17-(morpholin-4-ylmethyl)-3,6-dioxo-1,1a,3,4,5,6,9,10,18,19,20,21,22,22a-tetradecahydro-8H-7,10-methanocyclopropa[18,19][1,10,3,6]dioxadiazacyclononadecino[11,12-b]quinolin-8-yl]carbonyl}amino)-2-ethenylcyclopropyl]carbonyl}[(1-methylcyclopropyl)sulfonyl]azanide], the Ki in assay [1] was determined as 40200 pM; in assay [2] (setting [4]), 100 pM; in assay [2] (setting [5]), 348 pM.

Consider `C=C[C@@H]1C[C@]1(NC(=O)[C@@H]1C[C@@H]2CN1C(=O)[C@H](C1CCCC1)NC(=O)O[C@@H]1CCC[C@H]1CC/C=C/Cc1c(nc3ccccc3c1OCCCOCCOC)O2)C(=O)NS(=O)(=O)C1CC1` [Example 47, (3aR,7S,10S,12R,21E,24aS)-7-cyclopentyl-N-{(1R,2S)-1-[(cyclopropylsulfonyl)carbamoyl]-2-ethenylcyclopropyl}-19-[3-(2-methoxyethoxy)propoxy]-5,8-dioxo-1,2,3,3a,5,6,7,8,11,12,20,23,24,24a-tetradeca-hydro-10H-9,12-methanocyclopenta[18,19] [1,10,3,6]dioxadiazacyclononadecino[11, 12-b]quinoline-10-carboxamide], for which the Ki in assay [1] was found to be 2900 pM; in assay [2] (setting [3]), 120 pM.
